Legend:
Format in all cases: biochemical
[1] = biological target: T1, B-Raf (Homo sapiens, UniProt P15056); test: AlphaScreen kinase assay, B-Raf; details: read-out: IC50, activity toward kinase B-Raf
T1 construct: purchased Upstate Biotechnology

[2] = biological target: T2, B-Raf V600E (Homo sapiens, UniProt P15056, V600E); test: AlphaScreen kinase assay, B-Raf V600E; details: read-out: IC50, activity toward kinase B-Raf V600E
T2 construct: P4254. pFastBacBD-CDC37 BRAF D437-K722-X, V600E; His6 with pFastBac HT leader (TEV site) (N); made in house; host or cells: Sf9 (baculovirus; chaperone CDC37 co-expressed)

[3] = biological target: T3, Fms (Homo sapiens, UniProt P07333); test: AlphaScreen kinase assay, Fms; details: read-out: IC50, activity toward kinase Fms
T3 construct: purchased Upstate Biotechnology

[4] = biological target: T4, Jnk1 (Homo sapiens, UniProt P45983); test: AlphaScreen kinase assay, Jnk1; details: read-out: IC50, activity toward kinase Jnk1
T4 construct: purchased Upstate Biotechnology

[5] = biological target: T5, Jnk2 (Homo sapiens, UniProt P45984); test: AlphaScreen kinase assay, Jnk2; details: read-out: IC50, activity toward kinase Jnk2
T5 construct: purchased Roche Protein Expression Group (Indianapolis, IN)
Text: AlphaScreen assay was used to screen additional kinases. The assay is similarly dependent on the phosphorylation of a peptide substrate. In this assay, an antibody that recognizes phosphorylated substrate is bound to an acceptor bead. The peptide substrate is attached to biotin, which binds to a donor head that contains streptavidin. Thus phosphorylated substrate is bound by antibody and streptavidin, bringing the donor and acceptor heads into close proximity when kinase is not inhibited. The donor produces singlet oxygen which results in emission from the acceptor when they are in close proximity. Conversely, when kinase is inhibited, the donor and acceptor beads are not associated and the emission from the acceptor is reduced.
AlphaScreen assays were done using compounds dissolved in DMSO to a concentration of 20 mM. The compounds were diluted accordingly to the desired final concentrations in each sample well, using 1:3 serial dilution for a total of 8 concentration points.

[6] = biological target: T6, Jnk3 (Homo sapiens, UniProt P53779); test: AlphaScreen kinase assay, Jnk3; details: read-out: IC50, activity toward kinase Jnk3
T6 construct: purchased Upstate Biotechnology

[7] = biological target: T7, Kit (Homo sapiens, UniProt P10721); test: AlphaScreen kinase assay, Kit; details: read-out: IC50, activity toward kinase Kit
T7 construct: P1332.N6 BI PTP KIT M552-K948-X COD; His6 (N); made in house; host or cells: E. coli (PTP1B co-expressed)

[8] = biological target: T8, c-Raf-1 (Homo sapiens, UniProt P04049); test: AlphaScreen kinase assay, c-Raf-1; details: read-out: IC50, activity toward kinase c-Raf-1
T8 construct: purchased Upstate Biotechnology

[9] = biological target: T9, Flt1 (Homo sapiens, UniProt P17948); test: AlphaScreen kinase assay, Flt1; details: read-out: IC50, activity toward kinase Flt1
T9 construct: P1826.pETN6 BI-PTP FLT1 M799-D1165-X WT; His6 (N); made in house; host or cells: E. coli (PTP1B co-expressed)
T9 sequence (P17948 with tags, fused parts or gaps): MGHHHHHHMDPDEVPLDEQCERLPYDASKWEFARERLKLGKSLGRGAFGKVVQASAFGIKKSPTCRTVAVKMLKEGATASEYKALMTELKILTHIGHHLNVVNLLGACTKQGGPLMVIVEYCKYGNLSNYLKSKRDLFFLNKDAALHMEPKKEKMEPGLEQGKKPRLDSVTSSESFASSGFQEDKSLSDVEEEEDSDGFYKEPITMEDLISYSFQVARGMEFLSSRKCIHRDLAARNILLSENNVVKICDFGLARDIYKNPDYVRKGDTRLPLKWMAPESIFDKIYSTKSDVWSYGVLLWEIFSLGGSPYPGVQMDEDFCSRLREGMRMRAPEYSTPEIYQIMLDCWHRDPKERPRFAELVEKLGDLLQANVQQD

[10] = biological target: T10, FGFR1 (Homo sapiens, UniProt P11362, C488A/C584S); test: AlphaScreen kinase assay, FGFR1; details: read-out: IC50, activity toward kinase FGFR
T10 construct: P1351.pET N6 BI-PTP FGFR A458-E765-X C488A, C584S; made in house; host or cells: E. coli (PTP1B co-expressed)

[11] = biological target: T11, Ret (Homo sapiens, UniProt P07949); test: AlphaScreen kinase assay, Ret; details: read-out: IC50, activity toward kinase Ret
T11 construct: P1378.pET-SF BI-PTP RET H661-R1012 HIS; made in house
T11 sequence (P07949 with tags, fused parts or gaps): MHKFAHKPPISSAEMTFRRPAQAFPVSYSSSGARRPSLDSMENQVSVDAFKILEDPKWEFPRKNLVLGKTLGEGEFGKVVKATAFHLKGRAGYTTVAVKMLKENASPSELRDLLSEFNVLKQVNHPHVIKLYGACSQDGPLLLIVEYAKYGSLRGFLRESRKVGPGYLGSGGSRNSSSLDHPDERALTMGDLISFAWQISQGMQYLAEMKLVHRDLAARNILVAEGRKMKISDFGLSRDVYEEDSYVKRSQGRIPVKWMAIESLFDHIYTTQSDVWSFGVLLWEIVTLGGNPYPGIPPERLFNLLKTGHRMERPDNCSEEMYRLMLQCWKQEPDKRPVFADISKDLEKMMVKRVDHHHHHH

T7 sequence (P10721 with tags, fused parts or gaps): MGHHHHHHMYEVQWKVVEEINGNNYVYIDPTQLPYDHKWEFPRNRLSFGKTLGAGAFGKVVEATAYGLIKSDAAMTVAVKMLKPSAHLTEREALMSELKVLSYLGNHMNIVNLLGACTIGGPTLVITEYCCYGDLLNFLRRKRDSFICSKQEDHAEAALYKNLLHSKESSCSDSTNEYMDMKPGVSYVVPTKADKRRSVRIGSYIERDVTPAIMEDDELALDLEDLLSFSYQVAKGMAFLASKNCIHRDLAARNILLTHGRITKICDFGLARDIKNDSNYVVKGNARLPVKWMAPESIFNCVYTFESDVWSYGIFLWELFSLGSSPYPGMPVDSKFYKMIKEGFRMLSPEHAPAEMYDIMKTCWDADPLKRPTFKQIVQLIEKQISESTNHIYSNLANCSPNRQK
T4 sequence (P45983 whole entry): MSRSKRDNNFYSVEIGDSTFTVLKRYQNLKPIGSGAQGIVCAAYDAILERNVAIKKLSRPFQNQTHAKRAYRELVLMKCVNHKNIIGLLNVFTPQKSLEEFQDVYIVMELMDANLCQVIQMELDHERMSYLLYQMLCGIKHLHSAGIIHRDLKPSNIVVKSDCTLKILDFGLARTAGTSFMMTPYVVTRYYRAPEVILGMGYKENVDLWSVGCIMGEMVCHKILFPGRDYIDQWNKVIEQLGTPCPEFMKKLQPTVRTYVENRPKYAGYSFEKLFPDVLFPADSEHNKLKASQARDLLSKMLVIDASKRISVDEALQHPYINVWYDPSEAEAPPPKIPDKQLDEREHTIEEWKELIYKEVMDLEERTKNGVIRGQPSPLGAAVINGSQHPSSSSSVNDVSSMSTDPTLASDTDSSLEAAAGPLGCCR
T2 sequence (P15056 with tags, fused parts or gaps V600E): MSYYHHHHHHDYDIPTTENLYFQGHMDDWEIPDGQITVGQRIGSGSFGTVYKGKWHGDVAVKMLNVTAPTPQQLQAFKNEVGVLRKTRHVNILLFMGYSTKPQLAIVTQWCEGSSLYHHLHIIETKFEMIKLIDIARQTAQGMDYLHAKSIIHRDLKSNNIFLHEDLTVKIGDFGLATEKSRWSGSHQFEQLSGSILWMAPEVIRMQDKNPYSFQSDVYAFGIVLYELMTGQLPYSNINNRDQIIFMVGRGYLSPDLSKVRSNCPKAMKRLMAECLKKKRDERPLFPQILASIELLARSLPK
T1 sequence (P15056 whole entry): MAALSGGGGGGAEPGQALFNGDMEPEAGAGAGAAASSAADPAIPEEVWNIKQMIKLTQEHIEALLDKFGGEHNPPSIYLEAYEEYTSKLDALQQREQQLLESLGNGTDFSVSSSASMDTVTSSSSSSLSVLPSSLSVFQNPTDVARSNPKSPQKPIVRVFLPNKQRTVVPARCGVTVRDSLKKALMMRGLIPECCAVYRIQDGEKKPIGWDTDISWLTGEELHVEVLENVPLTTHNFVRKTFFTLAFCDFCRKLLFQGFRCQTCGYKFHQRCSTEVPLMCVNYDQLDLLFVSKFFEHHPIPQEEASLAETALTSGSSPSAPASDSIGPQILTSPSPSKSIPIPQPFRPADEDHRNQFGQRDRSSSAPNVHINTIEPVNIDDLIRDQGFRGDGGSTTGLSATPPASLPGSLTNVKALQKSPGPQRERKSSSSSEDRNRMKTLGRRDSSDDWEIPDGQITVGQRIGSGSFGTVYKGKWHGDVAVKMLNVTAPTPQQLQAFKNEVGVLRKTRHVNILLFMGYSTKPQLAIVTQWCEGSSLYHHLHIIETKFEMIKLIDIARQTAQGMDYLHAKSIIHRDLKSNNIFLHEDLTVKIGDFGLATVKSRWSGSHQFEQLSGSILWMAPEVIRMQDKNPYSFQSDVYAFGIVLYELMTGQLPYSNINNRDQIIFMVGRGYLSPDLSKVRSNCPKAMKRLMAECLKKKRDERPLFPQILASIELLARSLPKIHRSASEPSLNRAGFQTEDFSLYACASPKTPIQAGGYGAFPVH
T8 sequence (P04049 whole entry): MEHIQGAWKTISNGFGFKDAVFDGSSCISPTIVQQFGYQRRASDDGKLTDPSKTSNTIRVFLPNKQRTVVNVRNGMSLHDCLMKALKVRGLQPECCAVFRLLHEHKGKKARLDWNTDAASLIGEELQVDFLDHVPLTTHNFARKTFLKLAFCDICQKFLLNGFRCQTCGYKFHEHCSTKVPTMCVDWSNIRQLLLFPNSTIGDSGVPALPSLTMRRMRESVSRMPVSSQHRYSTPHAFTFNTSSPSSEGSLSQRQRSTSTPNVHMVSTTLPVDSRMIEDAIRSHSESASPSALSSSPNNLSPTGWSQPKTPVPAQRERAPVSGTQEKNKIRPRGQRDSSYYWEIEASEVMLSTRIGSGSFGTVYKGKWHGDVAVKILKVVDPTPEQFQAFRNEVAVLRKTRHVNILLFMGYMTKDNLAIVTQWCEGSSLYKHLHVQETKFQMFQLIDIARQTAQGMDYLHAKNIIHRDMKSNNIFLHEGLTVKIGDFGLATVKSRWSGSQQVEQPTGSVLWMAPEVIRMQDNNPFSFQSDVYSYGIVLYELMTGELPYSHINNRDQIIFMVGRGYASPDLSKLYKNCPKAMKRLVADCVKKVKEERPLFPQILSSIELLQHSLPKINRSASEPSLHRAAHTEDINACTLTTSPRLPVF
T3 sequence (P07333 20-972): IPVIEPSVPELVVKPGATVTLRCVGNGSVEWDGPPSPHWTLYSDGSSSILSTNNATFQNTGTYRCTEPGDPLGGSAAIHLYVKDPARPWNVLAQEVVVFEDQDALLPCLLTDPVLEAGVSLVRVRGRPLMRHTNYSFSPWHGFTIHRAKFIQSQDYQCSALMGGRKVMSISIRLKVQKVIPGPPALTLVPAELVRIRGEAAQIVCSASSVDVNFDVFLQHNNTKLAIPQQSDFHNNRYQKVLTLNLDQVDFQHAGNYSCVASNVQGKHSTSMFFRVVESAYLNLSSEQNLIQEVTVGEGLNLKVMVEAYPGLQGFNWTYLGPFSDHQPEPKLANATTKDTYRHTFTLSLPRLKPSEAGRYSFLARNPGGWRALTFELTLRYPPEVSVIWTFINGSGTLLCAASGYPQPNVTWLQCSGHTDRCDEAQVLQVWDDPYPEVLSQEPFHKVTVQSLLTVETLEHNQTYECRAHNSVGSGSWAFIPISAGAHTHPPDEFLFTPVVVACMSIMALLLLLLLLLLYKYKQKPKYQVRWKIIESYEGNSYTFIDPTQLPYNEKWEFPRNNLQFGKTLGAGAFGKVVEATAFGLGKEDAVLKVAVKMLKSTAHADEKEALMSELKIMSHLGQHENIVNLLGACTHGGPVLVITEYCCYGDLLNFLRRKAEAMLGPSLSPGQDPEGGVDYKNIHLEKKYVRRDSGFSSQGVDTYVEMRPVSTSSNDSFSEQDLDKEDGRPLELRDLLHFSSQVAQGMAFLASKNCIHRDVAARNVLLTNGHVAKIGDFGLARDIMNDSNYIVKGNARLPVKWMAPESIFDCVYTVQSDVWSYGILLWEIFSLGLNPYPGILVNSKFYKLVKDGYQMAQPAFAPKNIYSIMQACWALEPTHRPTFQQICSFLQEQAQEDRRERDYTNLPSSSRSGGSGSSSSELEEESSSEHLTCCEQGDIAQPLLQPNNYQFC
T5 sequence (P45984 whole entry): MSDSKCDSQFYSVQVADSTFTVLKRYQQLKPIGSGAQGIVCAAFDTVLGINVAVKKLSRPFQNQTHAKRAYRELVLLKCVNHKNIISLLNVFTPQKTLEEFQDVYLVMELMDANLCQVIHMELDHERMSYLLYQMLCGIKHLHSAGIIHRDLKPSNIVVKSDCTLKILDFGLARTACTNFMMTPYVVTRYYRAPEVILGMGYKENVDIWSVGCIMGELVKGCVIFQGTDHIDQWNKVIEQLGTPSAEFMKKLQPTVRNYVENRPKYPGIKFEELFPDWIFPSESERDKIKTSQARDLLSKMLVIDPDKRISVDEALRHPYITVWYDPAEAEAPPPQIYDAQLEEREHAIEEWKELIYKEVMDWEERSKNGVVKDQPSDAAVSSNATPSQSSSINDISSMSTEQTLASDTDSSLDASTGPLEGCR
T10 sequence (P11362 458-765 C488A/C584S): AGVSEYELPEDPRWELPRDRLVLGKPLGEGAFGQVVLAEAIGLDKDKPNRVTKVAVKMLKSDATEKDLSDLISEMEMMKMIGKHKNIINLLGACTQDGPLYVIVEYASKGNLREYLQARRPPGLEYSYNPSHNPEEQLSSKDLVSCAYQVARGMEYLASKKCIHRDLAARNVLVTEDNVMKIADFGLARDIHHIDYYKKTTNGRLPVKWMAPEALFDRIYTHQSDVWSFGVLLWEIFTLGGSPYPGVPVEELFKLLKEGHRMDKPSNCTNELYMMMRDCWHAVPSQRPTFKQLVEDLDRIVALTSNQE
T6 sequence (P53779 whole entry): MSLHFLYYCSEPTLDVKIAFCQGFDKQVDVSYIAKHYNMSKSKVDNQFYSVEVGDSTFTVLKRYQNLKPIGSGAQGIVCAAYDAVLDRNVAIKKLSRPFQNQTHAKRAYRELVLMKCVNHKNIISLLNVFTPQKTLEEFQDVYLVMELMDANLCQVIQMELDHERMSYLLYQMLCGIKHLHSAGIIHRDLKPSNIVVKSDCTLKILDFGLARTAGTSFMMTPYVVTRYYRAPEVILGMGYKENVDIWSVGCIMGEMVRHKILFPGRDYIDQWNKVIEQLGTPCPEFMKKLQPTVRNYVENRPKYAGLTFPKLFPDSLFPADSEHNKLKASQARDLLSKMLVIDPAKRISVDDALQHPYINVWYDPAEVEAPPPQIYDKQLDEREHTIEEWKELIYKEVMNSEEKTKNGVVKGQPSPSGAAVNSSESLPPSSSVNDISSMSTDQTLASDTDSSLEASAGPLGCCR

Row | IC50 [1] [µM] | IC50 [2] [µM] | IC50 [3] [µM] | IC50 [4] [µM] | IC50 [5] [µM] | IC50 [6] [µM] | IC50 [7] [µM] | IC50 [8] [µM] | IC50 [9] [µM] | IC50 [10] [µM] | IC50 [11] [µM] | Compound
1 | ≤ 10 | ≤ 10 | ≤ 10 | ≤ 10 | ≤ 10 | – | – | – | – | – | – | O=C(Nc1ccc(C(F)(F)F)cc1)Nc1cccc(C(=O)c2c[nH]c3ncc(-c4cccnc4)cc23)c1 [Compound P-1731, 1-[3-(5-Pyridin-3-yl-1H-pyrrolo[2,3-b]pyridine-3-carbonyl)-phenyl]-3-(4-trifluoromethyl-phenyl)-urea]
2 | ≤ 10 | ≤ 10 | ≤ 10 | ≤ 10 | ≤ 10 | – | – | – | – | – | – | COc1ccc(NC(=O)Nc2cccc(C(=O)c3c[nH]c4ncc(-c5cccnc5)cc34)c2)cc1 [Compound P-1723, 1-(4-Methoxy-phenyl)-3-[3-(5-pyridin-3-yl-1H-pyrrolo[2,3-b]pyridine-3-carbonyl)-phenyl]-urea]
3 | ≤ 10 | ≤ 10 | ≤ 10 | ≤ 10 | ≤ 10 | – | – | – | – | – | – | COc1ccc(NC(=O)Nc2cccc(C(=O)c3c[nH]c4ncc(-c5cccnc5)cc34)c2)cn1 [Compound P-1779, 1-(6-Methoxy-pyridin-3-yl)-3-[3-(5-pyridin-3-yl-1H-pyrrolo[2,3-b]pyridine-3-carbonyl)-phenyl]-urea]
4 | ≤ 10 | ≤ 10 | ≤ 10 | ≤ 10 | ≤ 10 | – | – | – | – | – | – | O=C(Nc1ccncc1)Nc1cccc(C(=O)c2c[nH]c3ncccc23)c1 [Compound P-1760, 1-Pyridin-4-yl-3-[3-(1H-pyrrolo[2,3-b]pyridine-3-carbonyl)-phenyl]-urea]
5 | ≤ 10 | ≤ 10 | ≤ 10 | – | ≤ 10 | ≤ 10 | – | – | – | – | – | O=C(Nc1cccc(C(=O)c2c[nH]c3ncc(-c4ccc(F)cc4)cc23)c1)Nc1ccc(C(F)(F)F)cc1Cl [Compound P-1753, 1-(2-Chloro-4-trifluoromethyl-phenyl)-3-{3-[5-(4-fluoro-phenyl)-1H-pyrrolo[2,3-b]pyridine-3-carbonyl]-phenyl}-urea]
6 | ≤ 10 | ≤ 10 | ≤ 10 | ≤ 10 | ≤ 10 | – | – | – | – | – | – | CCCCNC(=O)n1ccc2c(Cc3c[nH]c4ncc(-c5cccnc5)cc34)cccc21 [Compound P-1656, 4-(5-pyridin-3-yl-1H-pyrrolo[2,3-b]pyridin-3-ylmethyl)-indole-1-carboxylic acid butylamide]
7 | ≤ 10 | ≤ 10 | ≤ 10 | ≤ 10 | ≤ 10 | – | – | – | – | – | – | O=C(Nc1cccc(C(=O)c2c[nH]c3ncc(-c4cccnc4)cc23)c1)Nc1cccc(C(F)(F)F)c1 [Compound P-1755, 1-[3-(5-Pyridin-3-yl-1H-pyrrolo[2,3-b]pyridine-3-carbonyl)-phenyl]-3-(3-trifluoromethyl-phenyl)-urea]
8 | ≤ 10 | ≤ 10 | ≤ 10 | ≤ 10 | ≤ 10 | – | – | – | – | – | – | O=C(Nc1cccc(C(=O)c2c[nH]c3ncc(-c4cccnc4)cc23)c1)Nc1ccc(C(F)(F)F)cc1Cl [Compound P-1727, 1-(2-Chloro-4-trifluoromethyl-phenyl)-3-[3-(5-pyridin-3-yl-1H-pyrrolo[2,3-b]pyridine-3-carbonyl)-phenyl]-urea]
9 | ≤ 10 | ≤ 10 | ≤ 10 | ≤ 10 | ≤ 10 | – | – | – | – | – | – | COc1cc(NC(=O)Nc2cccc(C(=O)c3c[nH]c4ncc(-c5cccnc5)cc34)c2)cc(C(F)(F)F)c1 [Compound P-1778, 1-(3-Methoxy-5-trifluoromethyl-phenyl)-3-[3-(5-pyridin-3-yl-1H-pyrrolo[2,3-b]pyridine-3-carbonyl)-phenyl]-urea]
10 | ≤ 10 | ≤ 10 | ≤ 10 | – | ≤ 10 | – | ≤ 10 | – | – | – | – | O=C(Nc1cccc(C(=O)c2c[nH]c3ncccc23)c1)Nc1ccc(Cl)c(C(F)(F)F)c1 [Compound P-1711, 1-(4-Chloro-3-trifluoromethyl-phenyl)-3-[3-(1H-pyrrolo[2,3-b]pyridine-3-carbonyl)-phenyl]-urea]
11 | ≤ 10 | ≤ 10 | ≤ 10 | ≤ 10 | ≤ 10 | – | – | – | – | – | – | O=C(Nc1cccc(F)c1)Nc1cccc(C(=O)c2c[nH]c3ncc(-c4cccnc4)cc23)c1 [Compound P-1730, 1-(3-Fluoro-phenyl)-3-[3-(5-pyridin-3-yl-1H-pyrrolo[2,3-b]pyridine-3-carbonyl)-phenyl]-urea]
12 | ≤ 10 | ≤ 10 | ≤ 10 | – | ≤ 10 | – | ≤ 10 | ≤ 10 | – | – | – | O=C(Nc1ccc(C(=O)c2c[nH]c3ncccc23)cc1)Nc1cccc(C(F)(F)F)c1 [Compound P-1671]
13 | – | ≤ 10 | ≤ 10 | – | ≤ 10 | – | ≤ 10 | – | ≤ 10 | – | – | O=C(Nc1ccc(F)c(Cc2c[nH]c3ncc(Cl)cc23)c1F)NC1CCCC1 [Compound P-1575, 1-[3-(5-Chloro-1H-pyrrolo[2,3-b]pyridin-3-ylmethyl)-2,4-difluoro-phenyl]-3-cyclopentyl-urea]
14 | ≤ 10 | ≤ 10 | ≤ 10 | ≤ 10 | ≤ 10 | – | – | – | – | – | – | CCCCNC(=O)Nc1ccc(F)c(C(=O)c2c[nH]c3ncc(-c4cccc(S(C)(=O)=O)c4)cc23)c1 [Compound P-1627, 1-Butyl-3-{4-fluoro-3-[5-(3-methanesulfonyl-phenyl)-1H-pyrrolo[2,3-b]pyridine-3-carbonyl]-phenyl}-urea]
15 | ≤ 10 | ≤ 10 | – | – | ≤ 10 | – | – | ≤ 10 | – | ≤ 10 | ≤ 10 | O=C(c1cccc(O)c1F)c1c[nH]c2ncc(-c3cncnc3)cc12 [Compound P-0744, (2-fluoro-3-hydroxy-phenyl)-(5-pyrimidin-5-yl-1H-pyrrolo[2,3-b]pyridin-3-yl)-methanone]
16 | ≤ 10 | ≤ 10 | ≤ 10 | ≤ 10 | ≤ 10 | – | – | – | – | – | – | O=C(Nc1cccc(C(=O)c2c[nH]c3ncc(-c4cccnc4)cc23)c1)Nc1ccc(Cl)c(C(F)(F)F)c1 [Compound P-1751, 1-(4-Chloro-3-trifluoromethyl-phenyl)-3-[3-(5-pyridin-3-yl-1H-pyrrolo[2,3-b]pyridine-3-carbonyl)-phenyl]-urea]
17 | ≤ 10 | ≤ 10 | ≤ 10 | – | ≤ 10 | – | ≤ 10 | ≤ 10 | – | – | – | O=C(Nc1cccc(C(=O)c2c[nH]c3ncc(Cl)cc23)c1)Nc1ccc(Cl)c(C(F)(F)F)c1 [Compound P-1737, 1-[3-(5-Chloro-1H-pyrrolo[2,3-b]pyridine-3-carbonyl)-phenyl]-3-(4-chloro-3-trifluoromethyl-phenyl)-urea]

From patent publication US8415469B2, “Compounds and methods for kinase modulation, and indications therefor” (Plexxikon Inc., priority 2005, dated 2013)
